Reference: US20140079784A1, “AEROSOLIZED LFA-1 ANTAGONISTS FOR USE IN LOCALIZED TREATMENT OF IMMUNE RELATED DISORDERS” (SARCODE BIOSCIENCE INC., priority 2008, published 2014)
Read-outs that look alike come from different tables or passages of the source.

Legend:
[1] = system: human mononuclear cells (PBMC) stimulated with staphylococcal enterotoxin B (SEB); assay: cells; format: cell-based
LFA-1 = target: T1, LFA-1 (Homo sapiens, UniProt P20701); conditions: >90% occupancy of LFA-1; cited from earlier work
T1 construct: >90% occupancy of LFA-1 with efalizumab led to a greater than 50% clinical improvement in PASI score in a clinical trial; host or cells: leukocytes of psoriasis patients (in vivo)
T1 sequence (P20701 26-1170): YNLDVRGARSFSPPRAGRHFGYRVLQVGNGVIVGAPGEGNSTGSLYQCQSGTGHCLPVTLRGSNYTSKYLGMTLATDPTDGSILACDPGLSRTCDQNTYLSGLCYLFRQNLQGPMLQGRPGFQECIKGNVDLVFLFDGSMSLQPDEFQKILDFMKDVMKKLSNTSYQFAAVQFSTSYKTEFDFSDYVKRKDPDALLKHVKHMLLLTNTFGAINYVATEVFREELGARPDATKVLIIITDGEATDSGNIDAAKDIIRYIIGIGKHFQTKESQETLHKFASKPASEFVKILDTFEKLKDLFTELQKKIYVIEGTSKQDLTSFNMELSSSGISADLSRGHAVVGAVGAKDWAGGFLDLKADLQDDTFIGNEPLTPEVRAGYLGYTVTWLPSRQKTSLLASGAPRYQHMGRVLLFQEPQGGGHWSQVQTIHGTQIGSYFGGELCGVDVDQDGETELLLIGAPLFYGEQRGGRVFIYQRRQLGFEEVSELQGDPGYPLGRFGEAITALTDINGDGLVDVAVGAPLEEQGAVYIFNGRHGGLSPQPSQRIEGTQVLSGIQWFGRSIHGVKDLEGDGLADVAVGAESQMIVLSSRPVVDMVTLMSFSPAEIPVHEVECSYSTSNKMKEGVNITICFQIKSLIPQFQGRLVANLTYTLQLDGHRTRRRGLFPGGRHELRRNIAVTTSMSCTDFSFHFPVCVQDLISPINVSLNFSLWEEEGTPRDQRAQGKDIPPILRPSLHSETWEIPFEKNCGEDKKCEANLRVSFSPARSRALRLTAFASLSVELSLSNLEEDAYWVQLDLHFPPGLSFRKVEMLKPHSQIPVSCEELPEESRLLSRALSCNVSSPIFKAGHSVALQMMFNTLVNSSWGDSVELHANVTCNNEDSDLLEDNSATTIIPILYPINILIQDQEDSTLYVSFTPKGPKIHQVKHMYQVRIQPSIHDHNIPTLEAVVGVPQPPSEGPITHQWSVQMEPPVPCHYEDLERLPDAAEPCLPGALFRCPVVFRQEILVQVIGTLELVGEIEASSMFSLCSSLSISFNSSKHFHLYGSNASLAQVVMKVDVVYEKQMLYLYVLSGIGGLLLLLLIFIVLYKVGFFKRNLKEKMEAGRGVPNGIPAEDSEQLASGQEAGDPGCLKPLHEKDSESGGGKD
T1 sequence (P05107 23-769 partner): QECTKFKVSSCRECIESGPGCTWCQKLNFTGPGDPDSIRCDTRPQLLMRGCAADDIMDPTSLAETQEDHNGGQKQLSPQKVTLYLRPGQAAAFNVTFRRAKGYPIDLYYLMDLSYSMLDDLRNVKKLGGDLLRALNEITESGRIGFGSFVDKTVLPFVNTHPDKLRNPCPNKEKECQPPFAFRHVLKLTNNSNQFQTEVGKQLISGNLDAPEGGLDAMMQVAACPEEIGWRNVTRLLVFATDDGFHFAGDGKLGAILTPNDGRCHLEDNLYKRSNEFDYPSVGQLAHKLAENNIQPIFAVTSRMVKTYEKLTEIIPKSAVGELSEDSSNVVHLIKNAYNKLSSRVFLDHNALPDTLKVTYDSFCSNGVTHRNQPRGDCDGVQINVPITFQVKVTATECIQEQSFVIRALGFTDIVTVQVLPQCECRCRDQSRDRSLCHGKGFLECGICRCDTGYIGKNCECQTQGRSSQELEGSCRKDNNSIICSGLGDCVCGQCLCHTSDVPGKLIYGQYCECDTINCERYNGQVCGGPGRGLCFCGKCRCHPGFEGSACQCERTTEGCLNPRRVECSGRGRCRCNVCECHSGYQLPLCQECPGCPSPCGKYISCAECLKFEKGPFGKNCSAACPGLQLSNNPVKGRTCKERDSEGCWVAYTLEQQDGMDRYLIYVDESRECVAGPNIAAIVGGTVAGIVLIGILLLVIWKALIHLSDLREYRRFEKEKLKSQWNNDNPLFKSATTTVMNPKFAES

| Compound | EC50 ([1]; read-out: EC50 Cytokine Release GM-CSF) | EC50 ([1]; read-out: EC50 Cytokine Release IFNγ) | EC50 ([1]; read-out: EC50 Cytokine Release IL-1α) | EC50 ([1]; read-out: EC50 Cytokine Release IL-1β) | EC50 ([1]; read-out: EC50 Cytokine Release IL-2) | EC50 ([1]; read-out: EC50 Cytokine Release IL-3) | EC50 ([1]; read-out: EC50 Cytokine Release IL-4) | EC50 ([1]; read-out: EC50 Cytokine Release IL-5) | EC50 ([1]; read-out: EC50 Cytokine Release IL-6) | EC50 ([1]; read-out: EC50 Cytokine Release IL-10) | EC50 ([1]; read-out: EC50 Cytokine Release IL-12p40) | EC50 ([1]; read-out: EC50 Cytokine Release IL-13) | EC50 ([1]; read-out: EC50 Cytokine Release IP-10) | EC50 ([1]; read-out: EC50 Cytokine Release MCP-1) | EC50 ([1]; read-out: EC50 Cytokine Release MIP-1α) | EC50 ([1]; read-out: EC50 Cytokine Release TNF-α) | clinical improvement in PASI score (LFA-1) |
| --- | --- | --- | --- | --- | --- | --- | --- | --- | --- | --- | --- | --- | --- | --- | --- | --- | --- |
| O=C(NC(Cc1cc(=O)[nH]c2ccccc12)C(=O)O)c1ccc(Cl)cc1 (centres unmarked) [Rebamipide] | > 1 mM | > 1 mM | > 1 mM | > 1 mM | > 1 mM | > 1 mM | > 1 mM | > 1 mM | > 1 mM | > 1 mM | > 1 mM | > 1 mM | > 1 mM | > 1 mM | > 1 mM | > 1 mM |  |
| efalizumab: anti-LFA-1 (CD11a) antibody evaluated in plaque psoriasis |  |  |  |  |  |  |  |  |  |  |  |  |  |  |  |  | greater than 50% |
